Experimental data published in ChEMBL document CHEMBL1148520, “5-(Dimethoxymethyl)-2'-deoxyuridine: a novel gem diether nucleoside with anti-orthopoxvirus activity” (J Med Chem, 2006).
pEC50: −log10 of the molar value.

Tested on: Vaccinia virus
Test: Antiviral activity against vaccinia virus Copenhagen measured as cytopathogenicity in HFF cells
Assay type: functional, organism-based
Details: Orthopoxvirus vaccinia

## CCOC(OCC)c1cn(C2C[C@H](OC(C)=O)[C@@H](COC(C)=O)O2)c(=O)[nH]c1=O (some centres not stated)
  pEC50: 4.42

## COC(OC)c1cnc(O)nc1O
  pEC50: < 3.52

## CC(=O)OC[C@H]1OC(n2cc(C3OCCCO3)c(=O)[nH]c2=O)C[C@@H]1OC(C)=O (some centres not stated)
  pEC50: < 3.52

## CC(=O)OC[C@H]1OC(n2cc(C=O)c(=O)[nH]c2=O)C[C@@H]1OC(C)=O (some centres not stated)
  pEC50: < 3.52

## COC(OC)c1cn(C2C[C@H](OC(C)=O)[C@@H](COC(C)=O)O2)c(=O)[nH]c1=O (some centres not stated)
  pEC50: 3.53

## COC(OC)c1cn(C2C[C@H](O)[C@@H](CO)O2)c(=O)[nH]c1=O (some centres not stated)
  pEC50: 5.08

## O=Cc1cn([C@H]2C[C@H](O)[C@@H](CO)O2)c(=O)[nH]c1=O
  pEC50: < 3.52

## CC(=O)OC[C@H]1OC(n2cc(C3OCCO3)c(=O)[nH]c2=O)C[C@@H]1OC(C)=O (some centres not stated)
  pEC50: < 3.52

## CCOC(OCC)c1cn(C2C[C@H](O)[C@@H](CO)O2)c(=O)[nH]c1=O (some centres not stated)
  pEC50: < 4.22

## O=c1[nH]c(=O)n(C2CC(O)[C@@H](CO)O2)cc1C1OCCO1 (single isomer, unassigned)
  pEC50: < 3.52

## O=c1[nH]c(=O)n(C2CC(O)[C@@H](CO)O2)cc1C1OCCCO1 (single isomer, unassigned)
  pEC50: < 3.52

## Nc1ccn(C[C@@H](CO)OCP(=O)(O)O)c(=O)n1 [CIDOFOVIR]
  pEC50: 5.16
